# Experimental data: patent publication US20170176446A1, “Methods for Determining the Oncogenic Condition of Cell, Uses Thereof, and Methods for Treating Cancer” (INSERM (INSTITUT NATIONAL DE LA SANTE ET DE LA RECHERCHE …, priority 2009, published 2017)
# Columns and labels:
# MCF7 cells = experiment: OCDO production by MCF7 cells incubated with [14C]CE, thin-layer chromatography; assay type: cell-based, human
# Outline: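 MCF7 cells incubated with [14C]CE; lipids extracted, separated by silica TLC in ethyl acetate and quantified by phosphorimager densitometry. OCDO inhibition came from oxysterol proportions, OCDO over CEE+CE+CT+OCDO.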
# TT = experiment: Inhibition of OCDO production by PBPE in TT; assay type: cell-based; conditions: Homo sapiens, 48 h, read-out: Inhibition of OCDO production
# Protocol: An analogous experiment was reproduced with different cell lines, with the cells tested being incubated for 48 hours in a 40 μM solution of PBPE. It was noted that the OCDO was 100% inhibited for all the lines in the following table that were tested:
# Generally, in order to establish the percentages of OCDO inhibition from the thin-layer chromatography (TLC) plates obtained as in assay 2, the radioactive metabolites are identified and quantified on the basis of said plates using a europium-sensitive plate of GP Phosphor screen type (GE Healthcare) and a Storm 840 phosphorimagor (GE Healthcare). The proportion of radiolabeled oxysterols is determined on the autoradiogram obtained by densitometry using the Image Quant 5.2 software. The percentage is calculated on the basis of the ratio between the amount of oxysterols quantified divided by the sum of the amounts of oxysterols (CEE+CE+CT+OCDO). Since the CEE (CE ester) originates exclusively from the CE, the percentage CE is calculated on the basis of the ratio (CE+CEE)/(CE+CEE+CT+OCDO).
# [1] = MCF7 cells, [14C]CEα, three days, concentration given with each compound, share of labeled oxysterols
smiles,measurement,setting,value
"c1ccc(Cc2ccc(OCCN3CCCC3)cc2)cc1 [PBPE, N,N-pyrrolidino-[(4-benzyl)phenoxy]ethanamine]",inhibition at 40 µM,"MCF7 cells; Homo sapiens, MCF7, MCF-7, 40 μM PBPE, 48 hours",100%
same,% CE,MCF7 cells; [1],89.2%
same,% CT,MCF7 cells; [1],4.6%
same,% OCDO,MCF7 cells; [1],6.2%
same,OCDO production by MCF-7 (% control),"MCF7 cells; concentration in μM in parentheses after each molecule, control = 100",<1 % control
same,inhibition at 40 µM,TT,100%
